Converted amounts (≈) assume the structure as drawn.
Key:
B. subtilis 168 [1] = experiment: fitness (endpoint OD595 vs no drug) (fraction); higher = more growth
How it was run: (§1)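 Volumes were 30 µl per well, or 55 µl for S. pneumoniae, in 384-well plates inoculated at OD595 0.01. Media were TSB, LB Lennox or CY at 37 °C, and OD595 was read every 30 min for 14 h with first-reading background subtraction. Fitness is the ratio of optical density at stationary-phase entry to the robust mean of no-drug controls. That ratio is capped at 1.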

S. aureus DSM 20231 [2] = experiment: as above
How it was run: as §1

S. aureus Newman [3] = experiment: as above
How it was run: as §1

S. pneumoniae D39V [4] = experiment: as above
How it was run: as §1

B. subtilis 168 [5] = experiment: Bliss interaction score (quartile over a dose matrix) (fitness difference); higher = more antagonism (negative = synergy)
How it was run: (§2)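 The Bliss score is observed minus expected fitness, where expected fitness is the product of the single-drug fitness values inferred from the combination data. Fitness is the OD595 at the onset of stationary phase over the plate's robust no-drug mean, capped at 1. Scores are summarised by quartiles over technical, biological and donor/recipient replicates.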

S. aureus DSM 20231 [6] = experiment: as above
How it was run: as §2

S. aureus Newman [7] = experiment: as above
How it was run: as §2

S. pneumoniae D39V [8] = experiment: as above
How it was run: as §2

B. subtilis 168 [9] = test system: B. subtilis 168
S. aureus DSM 20231 [10] = test system: S. aureus DSM 20231
S. aureus Newman [11] = test system: S. aureus Newman
S. pneumoniae D39V [12] = test system: S. pneumoniae D39V
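Wherever Bliss interaction score (quartile over a dose matrix) is given: first quartile when negative (synergy) and third quartile when positive (antagonism).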

C[C@@H]1O[C@@H]1P(=O)(O)O [Fosfomycin] + Cc1ncc([N+](=O)[O-])n1CCO [Metronidazole]
fitness
Conditions	partner 0.625 µg/mL	partner 1.073 µg/mL	partner 1.25 µg/mL	partner 2.145 µg/mL	partner 2.5 µg/mL	partner 4.29 µg/mL	partner 5 µg/mL
B. subtilis 168 [1], first compound 1.562 µg/mL	0.72	–	0.687	–	0.701	–	–
B. subtilis 168 [1], first compound 3.124 µg/mL	0.679	–	0.627	–	0.634	–	–
B. subtilis 168 [1], first compound 6.248 µg/mL	0.583	–	0.573	–	0.481	–	–
S. aureus DSM 20231 [2], first compound 0.781 µg/mL	0.785	–	0.783	–	0.852	–	–
S. aureus DSM 20231 [2], first compound 1.562 µg/mL	0.605	–	0.624	–	0.682	–	–
S. aureus DSM 20231 [2], first compound 3.124 µg/mL	0.497	–	0.493	–	0.493	–	–
S. aureus Newman [3], first compound 0.781 µg/mL	0.58	–	0.636	–	0.612	–	–
S. aureus Newman [3], first compound 1.562 µg/mL	0.502	–	0.511	–	0.453	–	–
S. aureus Newman [3], first compound 3.124 µg/mL	0.133	–	0.079	–	0.0859	–	–
S. pneumoniae D39V [4], first compound 1.25 µg/mL	–	0.957	0.975	0.94	0.992	0.95	1
S. pneumoniae D39V [4], first compound 2.5 µg/mL	–	0.929	0.97	0.798	0.965	0.914	0.995
S. pneumoniae D39V [4], first compound 5 µg/mL	–	0.87	0.857	0.893	0.886	0.864	0.847

fitness, S. aureus Newman [3], one replicate
Conditions	first compound 0.781 µg/mL	first compound 1.562 µg/mL	first compound 3.124 µg/mL
partner 0.781 µg/mL	0.587	0.579	0.211
partner 1.562 µg/mL	0.565	0.538	0.236
partner 3.124 µg/mL	0.584	0.546	0.272

Conditions	Bliss interaction score
B. subtilis 168 [5]	0.0663
S. aureus DSM 20231 [6]	-0.0362
S. aureus Newman [7]	-0.0452
S. pneumoniae D39V [8]	0.0507

Cc1ncc([N+](=O)[O-])n1CCO [Metronidazole] + CN(N=O)C(=O)N[C@@H](C=O)[C@@H](O)[C@H](O)[C@H](O)CO [Streptozotocin]
fitness, one replicate
Conditions	partner 0.15 µg/mL	partner 0.3 µg/mL	partner 0.6 µg/mL	partner 1.2 µg/mL	partner 2.4 µg/mL	partner 4.8 µg/mL
B. subtilis 168 [1], first compound 0.625 µg/mL	≥ 1	≥ 1	≥ 1	–	–	–
B. subtilis 168 [1], first compound 1.25 µg/mL	0.91	≥ 1	≥ 1	–	–	–
B. subtilis 168 [1], first compound 2.5 µg/mL	0.956	0.941	0.976	–	–	–
S. aureus Newman [3], first compound 0.781 µg/mL	0.907	0.717	0.523	–	–	–
S. aureus Newman [3], first compound 1.562 µg/mL	0.875	0.722	0.519	–	–	–
S. aureus Newman [3], first compound 3.124 µg/mL	0.796	0.709	0.505	–	–	–
S. pneumoniae D39V [4], first compound 1.25 µg/mL	–	–	–	≥ 1	≥ 1	≥ 1
S. pneumoniae D39V [4], first compound 2.5 µg/mL	–	–	–	0.98	≥ 1	≥ 1
S. pneumoniae D39V [4], first compound 5 µg/mL	–	–	–	0.959	≥ 1	≥ 1

fitness
Conditions	first compound 0.625 µg/mL	first compound 1.073 µg/mL	first compound 1.25 µg/mL	first compound 2.145 µg/mL	first compound 2.5 µg/mL	first compound 4.29 µg/mL
S. aureus DSM 20231 [2], partner 0.15 µg/mL	0.876	–	0.888	–	0.905	–
S. aureus DSM 20231 [2], partner 0.3 µg/mL	0.791	–	0.752	–	0.831	–
S. aureus DSM 20231 [2], partner 0.6 µg/mL	0.683	–	0.701	–	0.734	–
S. aureus Newman [3], partner 0.15 µg/mL	0.838	–	0.833	–	0.816	–
S. aureus Newman [3], partner 0.3 µg/mL	0.725	–	0.742	–	0.731	–
S. aureus Newman [3], partner 0.6 µg/mL	0.579	–	0.568	–	0.591	–
S. pneumoniae D39V [4], partner 1.2 µg/mL	–	0.942	–	0.934	–	0.96
S. pneumoniae D39V [4], partner 2.4 µg/mL	–	0.961	–	0.904	–	0.743
S. pneumoniae D39V [4], partner 4.8 µg/mL	–	0.966	–	0.946	–	0.979

Conditions	Bliss interaction score
B. subtilis 168 [5]	-0.0488
S. aureus DSM 20231 [6]	-0.0474
S. aureus Newman [7]	0.0626
S. pneumoniae D39V [8]	0.0474

C[C@@H]1O[C@@H]1P(=O)(O)O [Fosfomycin] + COc1c(N2C[C@@H]3CCCN[C@@H]3C2)c(F)cc2c(=O)c(C(=O)O)cn(C3CC3)c12 [Moxifloxacin]
Conditions	fitness
B. subtilis 168 [1], first compound 1.562 µg/mL, partner 0.0312 µg/mL	0.0743
B. subtilis 168 [1], first compound 1.562 µg/mL, partner 0.0625 µg/mL	0.0627
B. subtilis 168 [1], first compound 1.562 µg/mL, partner 0.125 µg/mL	0.0277
B. subtilis 168 [1], first compound 1.562 µg/mL, partner 2 µg/mL	0.0303
B. subtilis 168 [1], first compound 1.562 µg/mL, partner 4 µg/mL	0.0293
B. subtilis 168 [1], first compound 1.562 µg/mL, partner 8 µg/mL	0.0076
B. subtilis 168 [1], first compound 3.124 µg/mL, partner 0.0312 µg/mL	0.0504
B. subtilis 168 [1], first compound 3.124 µg/mL, partner 0.0625 µg/mL	0.0309
B. subtilis 168 [1], first compound 3.124 µg/mL, partner 0.125 µg/mL	0.0339
B. subtilis 168 [1], first compound 3.124 µg/mL, partner 2 µg/mL	0.033
B. subtilis 168 [1], first compound 3.124 µg/mL, partner 4 µg/mL	0.0332
B. subtilis 168 [1], first compound 3.124 µg/mL, partner 8 µg/mL	0.0176
B. subtilis 168 [1], first compound 6.248 µg/mL, partner 0.0312 µg/mL	0.0469
B. subtilis 168 [1], first compound 6.248 µg/mL, partner 0.0625 µg/mL	0.0265
B. subtilis 168 [1], first compound 6.248 µg/mL, partner 0.125 µg/mL	0.0207
B. subtilis 168 [1], first compound 6.248 µg/mL, partner 2 µg/mL	0.016
B. subtilis 168 [1], first compound 6.248 µg/mL, partner 4 µg/mL	0.0083
B. subtilis 168 [1], first compound 6.248 µg/mL, partner 8 µg/mL	0.0062
S. aureus DSM 20231 [2], first compound 0.781 µg/mL, partner 0.0075 µg/mL	0.629
S. aureus DSM 20231 [2], first compound 0.781 µg/mL, partner 0.015 µg/mL	0.609
S. aureus DSM 20231 [2], first compound 0.781 µg/mL, partner 0.03 µg/mL	0.606
S. aureus DSM 20231 [2], first compound 1.562 µg/mL, partner 0.0075 µg/mL	0.592
S. aureus DSM 20231 [2], first compound 1.562 µg/mL, partner 0.015 µg/mL	0.564
S. aureus DSM 20231 [2], first compound 1.562 µg/mL, partner 0.03 µg/mL	0.538
S. aureus DSM 20231 [2], first compound 3.124 µg/mL, partner 0.0075 µg/mL	0.493
S. aureus DSM 20231 [2], first compound 3.124 µg/mL, partner 0.015 µg/mL	0.455
S. aureus DSM 20231 [2], first compound 3.124 µg/mL, partner 0.03 µg/mL	0.299
S. aureus Newman [3], first compound 0.781 µg/mL, partner 0.0075 µg/mL	0.587
S. aureus Newman [3], first compound 0.781 µg/mL, partner 0.015 µg/mL	0.509
S. aureus Newman [3], first compound 0.781 µg/mL, partner 0.03 µg/mL	0.0675
S. aureus Newman [3], first compound 1.562 µg/mL, partner 0.0075 µg/mL	0.413
S. aureus Newman [3], first compound 1.562 µg/mL, partner 0.015 µg/mL	0.358
S. aureus Newman [3], first compound 1.562 µg/mL, partner 0.03 µg/mL	0.0359
S. aureus Newman [3], first compound 3.124 µg/mL, partner 0.0075 µg/mL	0.0916
S. aureus Newman [3], first compound 3.124 µg/mL, partner 0.015 µg/mL	0.0267
S. aureus Newman [3], first compound 3.124 µg/mL, partner 0.03 µg/mL	0.015
S. pneumoniae D39V [4], first compound 1.25 µg/mL, partner 0.005 µg/mL	0.985
S. pneumoniae D39V [4], first compound 1.25 µg/mL, partner 0.01 µg/mL	0.988
S. pneumoniae D39V [4], first compound 1.25 µg/mL, partner 0.02 µg/mL	0.924
S. pneumoniae D39V [4], first compound 1.25 µg/mL, partner 0.0312 µg/mL	0.139
S. pneumoniae D39V [4], first compound 1.25 µg/mL, partner 0.0625 µg/mL	0.0679
S. pneumoniae D39V [4], first compound 1.25 µg/mL, partner 0.125 µg/mL	0.0548
S. pneumoniae D39V [4], first compound 2.5 µg/mL, partner 0.005 µg/mL	0.93
S. pneumoniae D39V [4], first compound 2.5 µg/mL, partner 0.01 µg/mL	0.983
S. pneumoniae D39V [4], first compound 2.5 µg/mL, partner 0.02 µg/mL	0.903
S. pneumoniae D39V [4], first compound 2.5 µg/mL, partner 0.0312 µg/mL	0.12
S. pneumoniae D39V [4], first compound 2.5 µg/mL, partner 0.0625 µg/mL	0.0706
S. pneumoniae D39V [4], first compound 2.5 µg/mL, partner 0.125 µg/mL	0.0382
S. pneumoniae D39V [4], first compound 5 µg/mL, partner 0.005 µg/mL	0.808
S. pneumoniae D39V [4], first compound 5 µg/mL, partner 0.01 µg/mL	0.88
S. pneumoniae D39V [4], first compound 5 µg/mL, partner 0.02 µg/mL	0.855
S. pneumoniae D39V [4], first compound 5 µg/mL, partner 0.0312 µg/mL	0.106
S. pneumoniae D39V [4], first compound 5 µg/mL, partner 0.0625 µg/mL	0.0921
S. pneumoniae D39V [4], first compound 5 µg/mL, partner 0.125 µg/mL	0.0302

fitness, S. aureus DSM 20231 [2], one replicate
Conditions	first compound 0.781 µg/mL	first compound 1.562 µg/mL	first compound 3.124 µg/mL
partner 0.06 µg/mL	0.655	0.585	0.465
partner 0.12 µg/mL	0.46	0.403	0.247

Conditions	Bliss interaction score
B. subtilis 168 [5]	-0.0148
S. aureus DSM 20231 [6]	0.0661
S. aureus Newman [7]	-0.0851
S. pneumoniae D39V [8]	0.0534

CC(=O)Oc1ccccc1C(=O)O [Acetylsalicylic acid]
Conditions	MIC [µg/mL]
B. subtilis 168 [9]	2000 (≈ 11.1 mM)
S. aureus DSM 20231 [10]	1000 (≈ 5.55 mM)
S. aureus Newman [11]	2000 (≈ 11.1 mM)
S. pneumoniae D39V [12]	2000 (≈ 11.1 mM)

fitness
Conditions	B. subtilis 168 [1]	S. aureus DSM 20231 [2]	S. pneumoniae D39V [4]
250 µg/mL	0.948	0.991	0.967
500 µg/mL	0.911	0.888	0.965
1000 µg/mL	0.745	0.522	0.924

— the supplement of paper PMC10627819
